Test results: ChEMBL document CHEMBL5042518, “Design of a Potent TLX Agonist by Rational Fragment Fusion” (J Med Chem, 2022)
The source made the active and inactive calls. No cut-off for these calls is given here.

Experiments:
HEK-293T [1] = experiment: Cytotoxicity against human HEK293T cells assessed as reduction in cell viability at >10 uM incubated for 24 hrs by WST-1 assay; type: toxicity, cell-based
[2] = Solubility of the compound in DSF buffer in presence of 2% DMSO; type: physicochemical
[3] = target: T1, Nuclear receptor subfamily 2 group E member 1 (Homo sapiens, UniProt Q9Y466); experiment: Agonist activity at human Gal4-fused TLX LBD expressed in human HEK293T cells coexpressing Gal4-VP16 assessed as repressor activity of receptor by measuring decrease in reporter activity at 0.03 to 30 uM measured after 14 hrs by Dual-Glo Luciferase assay; type: cell-based; conditions: filed as agonist, dose 0.03-30 µM
[4] = target: T1, Nuclear receptor subfamily 2 group E member 1; experiment: Agonist activity at human full length Gal4-fused TLX transfected in human HEK293T cells coexpressing pFR-TAE-Luc assessed as repressor activity of receptor by measuring decrease in reporter activity at 0.03 to 30 uM by dual-glo luciferase assay; type: cell-based; conditions: dose 0.03-30 µM
[5] = target: T1, Nuclear receptor subfamily 2 group E member 1; experiment: Agonist activity at human Gal4-fused TLX LBD expressed in human HEK293T cells coexpressing Gal4-VP16 assessed as repressor activity of receptor by measuring decrease in reporter activity measured after 14 hrs by Dual-Glo Luciferase assay; type: cell-based
HEK-293T [6] = experiment: Cytotoxicity against human HEK293T cells assessed as reduction in cell viability at >=10 uM incubated for 24 hrs by WST-1 assay; type: toxicity, cell-based
[7] = target: T1, Nuclear receptor subfamily 2 group E member 1; experiment: Agonist activity at human Gal4-fused TLX LBD expressed in human HEK293T cells coexpressing Gal4-VP16 assessed as repressor activity of receptor by measuring decrease in reporter activity at 30 uM measured after 14 hrs by Dual-Glo Luciferase assay; type: cell-based
HEK-293T [8] = experiment: Effect on Gal4-VP16 plasmid transfected in human HEK293T cells assessed as reporter activity at 100 uM incubated for 14 hrs by luciferase assay; type: functional, cell-based
[9] = target: T1, Nuclear receptor subfamily 2 group E member 1; experiment: Agonist activity at human full length Gal4-fused TLX transfected in human HEK293T cells coexpressing pFR-TAE-Luc assessed as repressor activity of receptor by measuring decrease in reporter activity by dual-glo luciferase assay; type: cell-based
[10] = target: T1, Nuclear receptor subfamily 2 group E member 1; experiment: Binding affinity to recombinant TLX LBD (unknown origin) by differential scanning fluorometry
[11] = target: T1, Nuclear receptor subfamily 2 group E member 1; experiment: Destabilization of recombinant TLX LBD (unknown origin) assessed as change in enthalpy at 100 uM by isothermal titration calorimetry; conditions: filed as agonist
[12] = target: T1, Nuclear receptor subfamily 2 group E member 1; experiment: Agonist activity at TLX (unknown origin) assessed as induction of receptor oligomerization using sGFP-labeled TLX LBD as acceptor and biotin TLX LBD as donor measured after 20 hrs incubation at RT and 2 hrs at 37 degC by HTRF assay
HEK-293T [13] = experiment: Cytotoxicity against human HEK293T cells assessed as reduction in cell viability incubated for 24 hrs by WST-1 assay; type: toxicity, cell-based
[14] = Half life in Sprague-Dawley rat liver microsomes at 10 uM pretreated for 30 mins with NADPH regenerating system followed by incubation with microsomes for 60 mins by HPLC analysis; type: ADME, Microsome; conditions: time 90 min
[15] = target: T1, Nuclear receptor subfamily 2 group E member 1; experiment: Agonist activity at TLX in human T98G cells assessed as upregulation of SIRT1 mRNA expression at 3 uM measured after 8 hrs by qRT-PCR analysis; type: cell-based; conditions: filed as agonist
T98G [16] = experiment: Upregulation of TLX gene expression in human T98G cells at 3 uM measured after 8 hrs by qRT-PCR analysis; type: functional, cell-based
[17] = target: T1, Nuclear receptor subfamily 2 group E member 1; experiment: Destabilization of recombinant TLX LBD (unknown origin) assessed as change in entropy at 100 uM by isothermal titration calorimetry; conditions: filed as agonist
[18] = Drug degradation in Sprague-Dawley rat liver microsomes at 10 uM pretreated for 30 mins with NADPH regenerating system followed by incubation with microsomes for 30 mins by HPLC analysis; type: ADME, Microsome; conditions: time 60 min, read-out: Drug degradation
T98G [19] = experiment: Upregulation of TLX gene expression in human T98G cells at 10 uM measured after 8 hrs by qRT-PCR analysis; type: functional, cell-based
[20] = target: T1, Nuclear receptor subfamily 2 group E member 1; conditions: filed as agonist, dose 100.0 µM
[21] = target: T1, Nuclear receptor subfamily 2 group E member 1; experiment: Agonist activity at TLX in human T98G cells assessed as upregulation of SIRT1 mRNA expression at 30 uM measured after 8 hrs by qRT-PCR analysis; type: cell-based; conditions: filed as agonist
T98G [22] = experiment: Upregulation of TLX gene expression in human T98G cells at 30 uM measured after 8 hrs by qRT-PCR analysis; type: functional, cell-based

T1 sequence (Q9Y466 whole entry, the tested form may be a part): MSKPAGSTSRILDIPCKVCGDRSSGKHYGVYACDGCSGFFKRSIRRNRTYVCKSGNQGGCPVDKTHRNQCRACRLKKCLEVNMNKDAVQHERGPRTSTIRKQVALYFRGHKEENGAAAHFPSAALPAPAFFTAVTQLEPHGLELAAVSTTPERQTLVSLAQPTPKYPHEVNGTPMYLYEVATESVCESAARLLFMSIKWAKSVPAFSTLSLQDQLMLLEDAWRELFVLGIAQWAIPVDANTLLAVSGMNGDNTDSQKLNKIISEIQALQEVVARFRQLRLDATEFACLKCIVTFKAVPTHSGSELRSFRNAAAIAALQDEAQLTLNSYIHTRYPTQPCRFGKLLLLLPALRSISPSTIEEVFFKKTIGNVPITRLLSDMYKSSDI

## CC1(C)CC=C(c2ccccc2)c2cc(/C=C/c3ccc(C(=O)O)cc3)ccc21
HEK-293T [1]
  Activity: Toxic
[2]
  solubility: Soluble
[3]
  Activity: Active
[4]
  Activity: inactive

## Cc1cn(-c2cc(NC(=O)CCCc3ccc(-c4ccccc4)cc3)cc(C(F)(F)F)c2)cn1
[5]
  EC50: 1.2 µM

## Cc1cn(-c2cc(NC(=O)C(c3ccccc3)c3ccccc3)cc(C(F)(F)F)c2)cn1
HEK-293T [6]
  Activity: Toxic

## Cc1cn(-c2cc(NC(=O)COc3cccc4ccccc34)cc(C(F)(F)F)c2)cn1
[7]
  Activity: inactive

## CCCCOc1cc(C(=O)Nc2cc(-n3cnc(C)c3)cc(C(F)(F)F)c2)c2ccccc2n1
HEK-293T [8]
  Activity: inactive
[5]
  EC50: 0.25 µM
[9]
  EC50: 0.7 µM
[10]
  Kd: 1.6 µM
[11]
  deltaH: 114 kcal/mol
[12]
  EC50: 5 µM
HEK-293T [13]
  Activity: Non-Toxic
[14]
  half-life at 10 µM: 2.37 h
[15]
  Activity: Active
T98G [16]
  Activity: inactive
[2]
  solubility: Soluble
[17]
  TdeltaS: 123 kcal/mol

## Cc1cc(C(=O)N2CCN(C(c3ccccc3)c3ccccc3)CC2)nn1C
HEK-293T [13]
  Activity: Non-Toxic
[18]
  metabolised at 1 h, 10 µM: 100%
T98G [19]
  Activity: inactive
[20]
  ΔTm: -1.08 °C

## Cc1cn(-c2cc(NC(=O)N3CCN(c4ccc(O)cc4)CC3)cc(C(F)(F)F)c2)cn1
[5]
  EC50: 5 µM

## CC(=O)Nc1cc(-n2cnc(C)c2)cc(C(F)(F)F)c1
[5]
  EC50: 11 µM

## Cc1cn(-c2cc(N)cc(C(F)(F)F)c2)cn1
HEK-293T [8]
  Activity: inactive
[5]
  EC50: 20 µM
[2]
  solubility: Soluble
[21]
  Activity: Active
T98G [22]
  Activity: inactive
[20]
  ΔTm: -1.69 °C

## Cc1cn(-c2cc(NC(=O)C3CCc4[nH]c5ccccc5c4C3)cc(C(F)(F)F)c2)cn1 (stereo not drawn)
[7]
  Activity: inactive

## COc1cc(N)c(Cl)cc1C(=O)Nc1cc(-n2cnc(C)c2)cc(C(F)(F)F)c1
[5]
  EC50: 3 µM
